# Experimental data published in ChEMBL document CHEMBL3407491, “Synthesis, characterization and in vitro photodynamic antimicrobial activity of basic amino acid-porphyrin conjugates” (Eur J Med Chem, 2015).
# Active and inactive are the calls of the source. The calls are words filed in the database; no cut-off is given here.
# Columns and labels:
# [1] = system: Staphylococcus aureus; test: Antibacterial activity against methicillin-resistant Staphylococcus aureus incubated in dark for 30 mins measured after 24 hrs; type: functional
# [2] = system: Staphylococcus aureus; test: Drug uptake in methicillin-resistant Staphylococcus aureus at 12.5 uM by confocal laser scanning microscopy; type: ADME, organism-based; conditions: in vivo
# [3] = system: Escherichia coli; test: Antibacterial activity against Escherichia coli ATCC 25922 incubated in dark for 30 mins measured after 24 hrs; type: functional
# [4] = system: Escherichia coli; test: Drug uptake in Escherichia coli ATCC 25922 at 12.5 uM by confocal laser scanning microscopy; type: ADME, organism-based; conditions: in vivo
# [5] = Toxicity against human […] cells assessed as cell viability at 3.91 to 62.5 uM under dark conditions by MTT assay; type: cell-based; conditions: read-out: Activity
# [6] = Toxicity against human […] cells assessed as reduction in cell viability by MTT assay; type: cell-based
# [7] = system: Staphylococcus aureus; test: Bactericidal activity against methicillin-resistant Staphylococcus aureus incubated in dark for 30 mins followed by exposure to light fluences at 650 nm and 6 J/cm2 and then incubated overnight followed by further incubation on LB agar plates for another 24 hrs; type: functional; conditions: light or radiation study
# [8] = system: Staphylococcus aureus; test: Antibacterial activity against methicillin-resistant Staphylococcus aureus incubated in dark for 30 mins followed by exposure to light fluences at 650 nm and 6 J/cm2 and then incubated overnight measured after 24 hrs; type: functional; conditions: light or radiation study
# [9] = system: Staphylococcus aureus; test: Antibacterial activity against methicillin-resistant Staphylococcus aureus at 0.49 uM to 7.8 uM incubated in dark for 30 mins followed by exposure to light fluences at 650 nm and 6 J/cm2 and then incubated overnight measured after 24 hrs; type: functional, organism-based
# [10] = Singlet oxygen generation of the compound exposed to 4.2 mW/cm2 light energy density assessed as singlet oxygen quantum yield measured at 410 nm in 10 seconds intervals of irradiation at 0.2 uM by DPBF scavenger based assay
# [11] = system: Escherichia coli; test: Antibacterial activity against Escherichia coli ATCC 25922 incubated in dark for 30 mins followed by exposure to light fluences at 650 nm and 6 J/cm2 and then incubated overnight measured after 24 hrs; type: functional; conditions: ATCC 25922, light or radiation study
# [12] = system: Pseudomonas aeruginosa; test: Antibacterial activity against Pseudomonas aeruginosa ATCC 27853 assessed as log reduction in bacterial count at 7.81 uM incubated in dark for 30 mins followed by exposure to light fluences at 650 nm and 6 J/cm2 and then incubated overnight measured after 24 hrs; type: functional, organism-based
# [13] = system: Staphylococcus aureus; test: Antibacterial activity against methicillin-resistant Staphylococcus aureus incubated in dark for 30 mins and grown for 24 hrs followed by further incubation on LB agar plates for another 24 hrs; type: functional
# [14] = system: Escherichia coli; test: Antibacterial activity against Escherichia coli ATCC 25922 at 0.49 uM to 7.8 uM incubated in dark for 30 mins followed by exposure to light fluences at 650 nm and 6 J/cm2 and then incubated overnight measured after 24 hrs; type: functional, organism-based
# [15] = system: Escherichia coli; test: Antibacterial activity against Escherichia coli ATCC 25922 incubated in dark for 30 mins and grown for 24 hrs followed by further incubation on LB agar plates for another 24 hrs; type: functional
# [16] = system: Pseudomonas aeruginosa; test: Antibacterial activity against Pseudomonas aeruginosa ATCC 27853 at 0.49 uM to 7.8 uM incubated in dark for 30 mins followed by exposure to light fluences at 650 nm and 6 J/cm2 and then incubated overnight measured after 24 hrs; type: functional, organism-based
# [17] = system: Pseudomonas aeruginosa; test: Antibacterial activity against Pseudomonas aeruginosa ATCC 27853 incubated in dark for 30 mins measured after 24 hrs; type: functional
# [18] = Octanol water partition coefficient, log P of the compound by reverse-phase thin-layer chromatography; type: physicochemical
# [19] = system: Pseudomonas aeruginosa; test: Antibacterial activity against Pseudomonas aeruginosa ATCC 27853 incubated in dark for 30 mins followed by exposure to light fluences at 650 nm and 6 J/cm2 and then incubated overnight measured after 24 hrs; type: functional; conditions: ATCC 27853, light or radiation study
# [20] = system: Staphylococcus aureus; test: Antibacterial activity against methicillin-resistant Staphylococcus aureus assessed as log reduction in bacterial count at 2 uM incubated in dark for 30 mins followed by exposure to light fluences at 650 nm and 6 J/cm2 and then incubated overnight measured after 24 hrs; type: functional
# [21] = Toxicity against human […] cells irradiated with 6 J/cm2 radiation assessed as cell viability at 7.81 uM by MTT assay; type: cell-based; conditions: read-out: Activity
# [22] = Stability in mouse serum assessed as compound remaining after 24 hrs by RP-HPLC method; type: ADME; conditions: read-out: Stability
# [23] = system: Pseudomonas aeruginosa; test: Bactericidal activity against Pseudomonas aeruginosa ATCC 27853 incubated in dark for 30 mins followed by exposure to light fluences at 650 nm and 6 J/cm2 and then incubated overnight followed by further incubation on LB agar plates for another 24 hrs; type: functional; conditions: ATCC 27853, light or radiation study
# [24] = system: Pseudomonas aeruginosa; test: Antibacterial activity against Pseudomonas aeruginosa ATCC 27853 assessed as log reduction in bacterial count at 3.5 uM incubated in dark for 30 mins followed by exposure to light fluences at 650 nm and 6 J/cm2 and then incubated overnight measured after 24 hrs; type: functional
# [25] = system: Pseudomonas aeruginosa; test: Antibacterial activity against Pseudomonas aeruginosa ATCC 27853 at 3.91 uM to 62.50 uM incubated in dark for 30 mins followed by exposure to light fluences at 650 nm and 6 J/cm2 and then incubated overnight measured after 24 hrs; type: functional, organism-based
# [26] = system: Escherichia coli; test: Antibacterial activity against Escherichia coli ATCC 25922 assessed as log reduction in bacterial count at 7.81 uM incubated in dark for 30 mins followed by exposure to light fluences at 650 nm and 6 J/cm2 and then incubated overnight measured after 24 hrs; type: functional, organism-based
# [27] = system: Escherichia coli; test: Bactericidal activity against Escherichia coli ATCC 25922 incubated in dark for 30 mins followed by exposure to light fluences at 650 nm and 6 J/cm2 and then incubated overnight followed by further incubation on LB agar plates for another 24 hrs; type: functional; conditions: ATCC 25922, light or radiation study
# [28] = system: Pseudomonas aeruginosa; test: Antibacterial activity against Pseudomonas aeruginosa ATCC 27853 incubated in dark for 30 mins and grown for 24 hrs followed by further incubation on LB agar plates for another 24 hrs; type: functional
# [29] = Photostability at 2 x 10^-5 mol/L exposed to 4.2 mW/cm2 light energy density assessed as change in absorption spectra after 30 mins post irradiation; type: physicochemical; conditions: 0.5 h, 20 µM
# [30] = system: Pseudomonas aeruginosa; test: Drug uptake in Pseudomonas aeruginosa ATCC 27853 at 12.5 uM by confocal laser scanning microscopy; type: ADME, organism-based; conditions: in vivo
# [31] = system: Escherichia coli; test: Antibacterial activity against Escherichia coli ATCC 25922 at 3.91 uM to 62.50 uM incubated in dark for 30 mins followed by exposure to light fluences at 650 nm and 6 J/cm2 and then incubated overnight measured after 24 hrs; type: functional, organism-based
# [32] = system: Escherichia coli; test: Antibacterial activity against Escherichia coli ATCC 25922 assessed as log reduction in bacterial count at 2 uM incubated in dark for 30 mins followed by exposure to light fluences at 650 nm and 6 J/cm2 and then incubated overnight measured after 24 hrs; type: functional
# [33] = system: Staphylococcus aureus; test: Antibacterial activity against methicillin-resistant Staphylococcus aureus assessed as log reduction in bacterial count at 10 uM incubated in dark for 30 mins followed by exposure to light fluences at 650 nm and 6 J/cm2 and then incubated overnight measured after 24 hrs; type: functional
# [34] = system: Pseudomonas aeruginosa; test: Antibacterial activity against Pseudomonas aeruginosa ATCC 27853 assessed as log reduction in bacterial count at 10 uM incubated in dark for 30 mins followed by exposure to light fluences at 650 nm and 6 J/cm2 and then incubated overnight measured after 24 hrs; type: functional
# [35] = system: Escherichia coli; test: Antibacterial activity against Escherichia coli ATCC 25922 assessed as log reduction in bacterial count at 10 uM incubated in dark for 30 mins followed by exposure to light fluences at 650 nm and 6 J/cm2 and then incubated overnight measured after 24 hrs; type: functional
Structure (SMILES),MIC [1] [µM],Drug uptake [2],MIC [3] [µM],Drug uptake [4],MBC [7] [µM],MIC [8] [µM],Activity [10],MIC [11] [µM],MBC [13] [µM],MBC [15] [µM],MIC [17] [µM],logP [18],MIC [19] [µM],MBC [23] [µM],MBC [27] [µM],MBC [28] [µM],Activity [29] [%],Drug uptake [30],other results
NCCCC[C@H](N)C(=O)Nc1ccc(-c2c3nc(c(-c4ccc(NC(=O)[C@@H](N)CCCCN)cc4)c4ccc([nH]4)c(-c4ccc(NC(=O)[C@@H](N)CCCCN)cc4)c4nc(c(-c5ccc(NC(=O)[C@@H](N)CCCCN)cc5)c5ccc2[nH]5)C=C4)C=C3)cc1,62.5,Active,62.5,Active,7.81,3.91,0.95,1.95,125,125,250,0.9,7.81,15.6,3.91,> 500,< 20,Active,viability at 62.5 µM [5]: > 90%; Activity [6]: Dose-dependent effect; Activity [9]: Dose-dependent effect; Activity [12]: Active; Activity [14]: Dose-dependent effect; Activity [16]: Dose-dependent effect; FC [20]: 3; viability at 7.81 µM [21]: > 85%; remaining at 24 h [22]: 85%; FC [24]: 3; Activity [25]: Dose-dependent effect; Activity [26]: Active; Activity [31]: Dose-dependent effect; FC [32]: 3
NCCCC[C@H](N)C(=O)Nc1ccc(-c2c3nc(c(-c4ccc(NC(=O)[C@@H](N)CCCCN)cc4)c4ccc([nH]4)c(-c4ccc(NC(=O)[C@@H](N)CCCCN)cc4)c4nc(c(-c5ccc(N)cc5)c5ccc2[nH]5)C=C4)C=C3)cc1,125,–,125,–,62.5,31.2,0.73,15.6,500,> 500,250,1.21,31.2,62.5,31.2,> 500,< 20,–,Log reduction in bacterial count [33]: 3; log reduction in bacterial count [34]: 1; log reduction in bacterial count [35]: 3
NCCCC[C@H](N)C(=O)Nc1ccc(-c2c3nc(c(-c4ccccc4)c4ccc([nH]4)c(-c4ccccc4)c4nc(c(-c5ccccc5)c5ccc2[nH]5)C=C4)C=C3)cc1,> 500,Not Active,> 500,Not Active,> 500,500,0.83,500,> 500,> 500,500,1.69,250,500,> 500,> 500,< 20,Not Active,–
